The results in this text go back to US9162979B2, “1,5-Diary1-2-alkylpyrrole-3-substituted nitro esters, selective COX-2 inhibitors and nitric oxide donors” (ROTTAPHARM BIOTECH S.R.L., priority 2010, dated 2015).

Structures are written as SMILES.

Data set [1] concerns isolated rings of thoracic aorta. Kind of data set: Evaluation of release of NO: vasorelaxing activity on endothelium-denuded aortic rings contracted with KCl. The arrangement: species or system rat; key to NO release properties Emax (maximum vasorelaxing effect) / NO release properties pIC50 (vasorelaxing potency): S.E: Scarcely Effective: it is not possible to detect NO release comparable to the other compounds mentioned here. The note with it: for NO release properties pIC50 (vasorelaxing potency) / IC50: concentration reducing contractile tone induced by 20 mM KCl by half; for NO release properties Emax (maximum vasorelaxing effect) / Emax: relative to contractile tone induced by 20 mM KCl, 1 nM-10 μM; for Emax / IC50: Rattus norvegicus; for Emax: read-out: NO release properties Emax (maximum vasorelaxing effect); for IC50: read-out: NO release properties pIC50 (vasorelaxing potency) (converted). The protocol: The activity of the compounds was evaluated on isolated rings of thoracic aorta of normotensive male Wistar rats (250-350 g). After light anaesthesia with ether, the rats were sacrificed by cervical dislocation and exsanguination. The aortas were immediately excised, extraneous tissues were removed and the endothelial layer was removed by gently rubbing the surface with a hypodermic needle. Rings of aorta with a width of 5 mm were suspended, with a preload of 2 g, in 20-ml organ baths, containing a solution of “Tyrode” (composition of the saline solution in mM: NaCl 136.8; KCl 2.95; CaCl2 1.80; MgSO4 1.05; NaH2PO4 0.41; NaHCO3 11.9; glucose 5.5), thermostatically controlled at 37° C. and kept in an atmosphere of O2 (95%) and CO2 (5%). […] were recorded by means of an isometric transducer (FTO3 Erba), connected to a microdynamometer (Buxco Electronics).
60 minutes after preparation, removal of the endothelium was confirmed by acetylcholine (ACH) (10 μM) treatment of the vascular rings pre-contracted with KCl (20 mM). Relaxation of less than 10% of the contraction induced by KCl was considered as representative of acceptable removal of the endothelial layer, whereas organs displaying relaxation ≧10% were discarded. 40 minutes after confirmation of complete removal of the endothelium, the aortas were contracted by treatment with a single dose of KCl (20 mM) and after the contraction reached a stable plateau, increasing cumulative concentrations (with progressive increments of 3 times) of the test compounds (1 nM-10 μM) were added. It was found from preliminary experiments that the contraction induced by KCl (20 mM) remained stable in a tonic state for at least 40 minutes. The same experiments were performed in the presence of a well-known inhibitor of guanylate cyclase: ODQ 1 μM, which was incubated in aorta preparations after confirmation of removal of the endothelium.
Analysis of the results. The vasorelaxing activity was evaluated as a percentage (%) relative to the contractile tone induced by 20 mM KCl. The pharmacodynamic efficacy parameter (Emax) corresponds to the maximum vasorelaxing effect induced by the molecule tested, expressed as percentage relative to the contractile tone induced by 20 mM KCl. When the limit concentration of 10 μM (the highest concentration administered) of the test compounds has not reached the maximum effect, the efficacy parameter (Emax) corresponds to the vasorelaxing effect induced by the limit concentration (expressed as percentage relative to the contractile tone induced by 20 mM KCl). The pharmacodynamic parameter of potency of the compounds was expressed as pIC50 calculated as the negative logarithm of the molar concentration of test compound that reduces the contractile tone induced by 20 mM KCl by half. […] The parameters of efficacy and potency were expressed as mean±standard error, for 5-10 experiments. The experimental data were analysed by the program GraphPad Prism 3.0.

For another data set, the target named is COX-2 (Mus musculus (Mouse), UniProt Q05769). The data set is described as follows: Evaluation of COX-2 activity: PGE2 production in LPS-stimulated J774 cells. The format is cell-based, murine. The note with it: J774 cells stimulated 24 hours with LPS 10 μg/mL; PGE2 by radio-immunological assay; read-out: Cyclooxygenase inhibition COX-2 IC50. The protocol: The murine monocyte/macrophage cell line J774 is grown in Dulbecco's modified Eagle's medium (DMEM), enriched with glutamine (2 mM), HEPES (25 mM), penicillin (100 u/mL), streptomycin (100 μg/mL), 10% of fetal bovine serum (FBS) and 1.2% of sodium pyruvate. […] Just before the experiments, the culture medium is replaced with fresh medium without FBS to avoid interference during the radio-immunological phase and the cells are stimulated as described below.
The supernatants are collected for evaluating, by means of radio-immunological assays, the amount of PGE2 produced.
In each group of experiments, wells were used in triplicate for the different treatment conditions. […] The data were evaluated using the sigmoidal dose-response equation (variable slope) (GraphPad software). IC50 and the 95% precision intervals were calculated with the program GraphPad Instat (GraphPad software).

Chain of COX-2 (Q05769 18-604): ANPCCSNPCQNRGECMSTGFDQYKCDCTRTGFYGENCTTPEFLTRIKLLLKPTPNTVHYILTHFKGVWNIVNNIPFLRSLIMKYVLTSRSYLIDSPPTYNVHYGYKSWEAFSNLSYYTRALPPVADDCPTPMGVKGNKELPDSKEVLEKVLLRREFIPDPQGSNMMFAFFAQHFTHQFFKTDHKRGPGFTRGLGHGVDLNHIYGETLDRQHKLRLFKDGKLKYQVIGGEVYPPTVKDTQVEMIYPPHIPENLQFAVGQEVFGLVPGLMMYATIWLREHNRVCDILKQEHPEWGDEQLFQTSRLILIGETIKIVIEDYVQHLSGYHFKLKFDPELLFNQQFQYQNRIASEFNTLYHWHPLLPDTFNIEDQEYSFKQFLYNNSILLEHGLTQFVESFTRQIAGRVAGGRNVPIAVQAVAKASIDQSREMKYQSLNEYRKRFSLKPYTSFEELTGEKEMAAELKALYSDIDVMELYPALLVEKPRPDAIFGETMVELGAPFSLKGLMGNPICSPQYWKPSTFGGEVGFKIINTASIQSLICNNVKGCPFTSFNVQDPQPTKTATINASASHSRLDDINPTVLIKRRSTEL

The term melting point denotes the temperature of the solid-liquid transition. Regarding `Cc1c(CC(=O)NCCCO[N+](=O)[O-])cc(-c2ccc(S(C)(=O)=O)cc2)n1-c1ccc(F)cc1` [Example 26, N-[(3-Nitroxy)propyl]-2-[1-(4-fluorophenyl)-2-methyl-5-(4-methylsulphonylphenyl)-1H-pyrrol-3-yl]acetamide], the melting point came out at 127 °C.

As to `Cc1c(CC(=O)NC(CO[N+](=O)[O-])C(=O)O)cc(-c2ccc(S(C)(=O)=O)cc2)n1-c1ccc(F)cc1` (stereo in doubt) [Example 29, (S)-3-(Nitroxy)-2-[[1-(4-fluorophenyl)-2-methyl-5-(4-methylsulphonylphenyl)-1H-pyrrol-3-yl]acetamido]propanoic Acid], in data set [1], the “NO release properties pIC50 (vasorelaxing potency)” value is “S.E” and the “NO release properties Emax (maximum vasorelaxing effect)” value is “S.E”. Besides, the IC50 at COX-2 amounted to 310 nM.

As usually defined, the Emax is the size of the effect at its maximum, as opposed to the concentration needed. Turning to `Cc1c(CCOCCCO[N+](=O)[O-])cc(-c2ccc(S(C)(=O)=O)cc2)n1-c1ccccc1` [Example 40, 3-[2-[2-(1-Phenyl-2-methyl-5-(4-methylsulphonylphenyl)-1H-pyrrol-3-yl)ethoxy]propyl Nitrate], the Emax in data set [1] is 48.2 ± 0.5%. For the same molecule, on COX-2, the IC50 is 15 nM.

Turning to `CSc1ccc(-n2c(-c3ccc(S(C)(=O)=O)cc3)cc(CC(=O)OCCCCO[N+](=O)[O-])c2C)cc1` [Example 14, 4-(Nitrooxy)butyl-2-[1-(4-thiomethylphenyl)-2-methyl-5-(4-methylsulphonylphenyl)-1H-pyrrol-3-yl]acetate], the “vasorelaxing effect in the presence of ODQ” value in data set [1] (ODQ 1 μM, guanylate cyclase inhibitor) is reported as “not fully antagonized by ODQ”. In data set [1], the IC50 was 5010 nM and the Emax was determined as 55 ± 15%. Besides, at COX-2, the IC50 was determined as 220 nM.

As to `Cc1c(CCOCCCO)cc(-c2ccc(S(C)(=O)=O)cc2)n1-c1cccc(F)c1` [Example 42-II, 3-[2-(1-(3-Fluorophenyl)-2-methyl-5-(4-methylsulphonylphenyl)-1H-pyrrol-3-yl)ethoxy]propanol], at COX-2, the IC50 turned out to be 1500 nM.

As to `CSc1ccc(-n2c(-c3ccc(S(C)(=O)=O)cc3)cc(CC(=O)OCCCO[N+](=O)[O-])c2C)cc1` [Example 10, 3-(Nitroxy)propyl-[1-(4-methylthiophenyl)-2-methyl-5-(4-methylsulphonylphenyl)-1H-pyrrol-3-yl]-acetate], the maximal effect (Emax) in data set [1] amounted to 41 ± 8%. Besides, the IC50 on COX-2 was 27 nM.

For `Cc1c(CC(=O)NC(CO[N+](=O)[O-])C(=O)O)cc(-c2ccc(S(C)(=O)=O)cc2)n1-c1cccc(F)c1` (stereo in doubt) [Example 30, (S)-3-(Nitroxy)-2-[1-(3-fluorophenyl)-2-methyl-5-(4-methylsulphonylphenyl)-1H-pyrrol-3-yl]acetamido]propanoic Acid], in data set [1], the “NO release properties pIC50 (vasorelaxing potency)” value is given as “S.E” and the “NO release properties Emax (maximum vasorelaxing effect)” value was “S.E”. Besides, on COX-2, the IC50 was found to be 140 nM.

In the case of `Cc1c(CC(=O)OCCO[N+](=O)[O-])cc(-c2ccc(S(C)(=O)=O)cc2)n1-c1ccccc1` [Example 1, 2-(Nitrooxy)ethyl-2-[1-phenyl-2-methyl-5-(4-methylsulphonylphenyl)-1H-pyrrol-3-yl]acetate], in data set [1], the IC50 was 1410 nM and the maximum response (Emax) turned out to be 66 ± 3%. Moreover, on COX-2, the IC50 was determined as 43 nM.

For the molecule `Cc1c(CC(=O)NCCO)cc(-c2ccc(S(C)(=O)=O)cc2)n1-c1cccc(F)c1` [Example 24-II, N-[(2-hydroxy)ethyl]-2-[1-(3-fluorophenyl)-2-methyl-5-(4-methylsulphonylphenyl)-1H-pyrrol-3-yl]acetamide], on COX-2, the IC50 came out at 290 nM.

For the molecule `Cc1c(CCOCCO[N+](=O)[O-])cc(-c2ccc(S(C)(=O)=O)cc2)n1-c1ccccc1` [Example 36, 2-[2-[1-Phenyl-2-methyl-5-(4-methylsulphonylphenyl)-1H-pyrrol-3-yl]ethoxy]ethyl Nitrate], in data set [1], the IC50 was 6030 nM and the Emax is 65%. For the same molecule, the IC50 at COX-2 is 17 nM.
